In US6589961B2, “9-alkylamino-1-nitroacridine derivatives” (New York Medical College, priority 2000, dated 2003):
Several values for one entry are separate records, joined by “and”; a condition that tells them apart may be missing. Equal entries are not always repeated.

Legend:
Assay type in all cases: in vivo
[1] = test system: ascites adenocarcinoma Walker 256; assay: Antitumor activity against ascites adenocarcinoma Walker 256 in rats (survival); conditions: Wistar rats; for Optimal dose: dose giving the highest antitumor activity, i.p. on days 3, 4 and 5 after tumor transplantation, five doses tested; for Antitumor activity against Walker256 (Survival) Test/Control: mean survival time of test group vs control at the optimal dose, i.p. on days 3, 4 and 5
Description: Tumors are transplanted weekly into Wistar rats by intraperitoneal inoculation of 10^6 tumor cells. In the experiments, Walker carcinosarcoma 256 cells are transplanted on day 0 in Wistar rats weighing 75-100 g. by i.p. injection of 10^6 cells per animal. Each acridine is administered i.p. on days 3, 4, and 5 after tumor transplantation. Five rats are in each group at a given drug dose level and a group of 10 rats served as control for all test groups. […] Each acridine is tested at five different doses. The activity of the drug T/C (%) is expressed as % increase in mean survival time (in days) of test group (T) to the mean survival time (in days) of the control (C). Usually, the antitumor activity is presented only for the optimal dose (O.D. mg/kg/day) of tested compounds, at which the highest antitumor activity is observed.

Dunning G cells = assay: Antitumor activity in Dunning G induced tumors in Copenhagen rats; conditions: two weeks after treatment withdrawal
Description: Four to five week old Copenhagen rats are purchased from Harlan Sprague Dawley, Indianapolis, Ind., and allowed to acclimate for one week, feeding on Purina 5001 rat chow. At the end of one week, the rats are randomized into different experimental groups. Body weights of the animals measured twice a week.
Live Dunning G cells (one million/rat) are injected subcutaneously in all animals to induce tumors. Dunning G cells are non-metastatic tumor producing prostate cancer cells derived from spontaneous tumors from Copenhagen rats. Dunning G and MAT-LyLu cells (Yedavelli et al, 1999, Int. J. Mol. Med. 4:243-248) are grown in RPMI 1640 containing 10% fetal bovine serum (FBS) supplemented with penicillin (50 IU/mL), streptomycin (50 μg/mL), 2 mM L-glutamine and 2.5 mM dexamethasone. Cells are fed twice a week and are trypsinized with 0.05% trypsin-EDTA at 70-80 percent cell confluency.
Animals are injected i.p twice a week with 9-(2′-hydroxyethylamino)-4-methyl-1-nitroacridine (0.8 or 1.0 mg/Kg body weight) 1-nitro-9-hydroxyethylaminoacridine (0.6 mg/Kg body weight) twice a week for three weeks. Injections are started on day 25 for animals injected with Dunning G cells when tumors are palpable (0.5 cm). All animals are housed in hanging cages with three/four animals per cage and had ad libitum access to food and drinking water and are kept on twelve hour diurnal cycle. All injections and tumor measurements are performed under light anesthesia (metofane inhalation). Experimental end point measurements include body weight, tumor incidence. The experiment is terminated when the tumor size in the control animals is 3 cms diameter. Sacrifice of the animals is done by carbon dioxide asphyxiation.
Stock solution of 9-(2′-hydroxyethylamino)-4-methyl-1-nitroacridine is made in dimethylsulfoxide at 0.16 mg/ml. All drugs for injection in animals are diluted in PBS such that the total volume injected is between 0.1 to 0.2 mL. Stock solution of 1-nitro-9-hydroxyethylaminoacridine is made in dimethylsulfoxide at 0.12 mg/ml.

TSU cells = assay: Antitumor activity on human prostate tumor (TSU) xenografts in nude mice; conditions: Balb c/nu/nu mice
Description: Tumors are induced in six week old Balb c/nu/nu mice which are allowed to acclimate for two weeks by subcutaneous injection of 2×10^6 TSU cells per mouse. TSU cells are human prostate cancer cells (Iizumi et al., 1987, J. Urol. 137:1304-1306). TSU cells are grown in RPMI-1640 medium supplemented with 10% fetal bovine serum and the antibiotics penicillin (50 IU/ml), streptomycin (50 μg/ml) and 2 mM L-glutamine. Cells are fed with fresh media twice a week and are trypsinized using 0.05% trypsin-EDTA. Cells used for injection are always in the log phase of their growth (70-80%) confluent flask and cell viability is checked by trypan-blue exclusion test prior to injection. Only cells >95% […] are used.
Tumors are palpable in the mice by day 7 when treatment with the two drugs, mitoxantrone (0.6 mg/kg) and 9-(2′-hydroxyethylamino)-4-methyl-1-nitroacridine (0.8 mg/kg) is initiated. Treatment is continued twice weekly for three weeks. Mice are lightly anesthetized and tumors are measured and are weighed weekly. The stock concentrations of the drug are 0.12 mg/ml in PBS for mitoxantrone and 0.16 mg/ml in dimethylsulfoxide (DMSO) for 9-(2′-hydroxyethylamino)-4-methyl-1-nitroacridine. Mice are housed 5 animals/cage.

Compound	Optimal dose [1]	Antitumor activity against Walker256 (Survival) Test/Control [1]	further results
CC(=O)OCCNc1c2ccccc2nc2cccc([N+](=O)[O-])c12 [9-(2′-acetoxyethylamino)-1-nitroacridine]	1 mg/kg	167%	–
COc1ccc([N+](=O)[O-])c2c(NCCCCO)c3ccccc3nc12 [9-(4′-hydroxybutylamino)-4-methoxy-1-nitroacridine]	32 mg/kg	200%	–
COc1ccc2nc3cccc([N+](=O)[O-])c3c(NCCCCO)c2c1 [9-(4′-hydroxybutylamino)-7-methoxy-1-nitroacridine]	2 mg/kg	157%	–
Cc1ccc([N+](=O)[O-])c2c(NCCO)c3ccccc3nc12 [9-(2′-hydroxyethylamino)-4-methyl-1-nitroacridine]	4 mg/kg	217%	reduction of tumors (Dunning G cells; 0.8 mg/kg i.p. twice a week for three weeks): 65%; reduction of tumors (Dunning G cells; 1.0 mg/kg i.p. twice a week for three weeks): 75%; effect on tumors (FIG. 2) (TSU cells; 0.8 mg/kg twice weekly for three weeks from day 7, observation up to 11 weeks): reduction of the tumors until completely tumor free by five weeks and remained in force until 11 weeks
9-(4′-hydroxypropylamino)-7-methoxy-4-methyl-1-nitroacridine	8 mg/kg	183%	–
COc1ccc2nc3cccc([N+](=O)[O-])c3c(NCCO)c2c1 [9-(2′-hydroxyethylamino)-7-methoxy-1-nitroacridine]	2 mg/kg	150% and 200%	–
COc1ccc([N+](=O)[O-])c2c(NCCCO)c3ccccc3nc12 [9-(3′-hydroxypropylamino)-4-methoxy-1-nitroacridine]	2 mg/kg	157%	–
CCC(=O)OC(C)CNc1c2ccccc2nc2c(C)ccc([N+](=O)[O-])c12 (stereo not drawn) [9-(2′-propionoxypropylamino)-4-methyl-1-nitroacridine]	8 mg/kg	257%	–
O=C1c2c(O)ccc(O)c2C(=O)c2c(NCCNCCO)ccc(NCCNCCO)c21 [mitoxantrone, reference compound]	–	–	effect on tumors (FIG. 2) (TSU cells; 0.6 mg/kg twice weekly for three weeks from day 7): showed a reduction till three weeks and the tumors started growing eight weeks after withdrawal of therapy
CCC(=O)OCCNc1c2ccccc2nc2c(C)ccc([N+](=O)[O-])c12 [9-(2′-propionoxyethylamino)-4-methyl-1-nitroacridine]	8 mg/kg	214%	–
Cc1ccc([N+](=O)[O-])c2c(NCCCO)c3ccccc3nc12 [9-(3′-hydroxypropylamino)-4-methyl-1-nitroacridine]	2 mg/kg	233%	–
COc1ccc2nc3c(C)ccc([N+](=O)[O-])c3c(NCCCO)c2c1 [9-(3′-hydroxypropylamino)-7-methoxy-4-methyl-1-nitroacridine]	16 mg/kg	183%	–
CCC(=O)OCCNc1c2ccccc2nc2cccc([N+](=O)[O-])c12 [9-(2′-propionoxyethylamino)-1-nitroacridine]	1 mg/kg	200%	–
COc1ccc2nc3cccc([N+](=O)[O-])c3c(NCCCO)c2c1 [9-(3′-hydroxypropylamino)-7-methoxy-1-nitroacridine]	0.5 mg/kg	182% and 229%	–
COc1ccc2nc3c(C)ccc([N+](=O)[O-])c3c(NCCO)c2c1 [9-(2′-hydroxyethylamino)-7-methoxy-4-methyl-1-nitroacridine]	16 mg/kg	233%	–
O=[N+]([O-])c1cccc2nc3ccccc3c(NCCO)c12 [1-nitro-9-hydroxyethylaminoacridine, reference compound]	–	–	reduction of tumors (Dunning G cells; 0.6 mg/Kg body weight i.p. twice a week for three weeks (FIG. 1 legend says 0.8 mg/Kg)): 50%
CCCCOCCNc1c2ccccc2nc2c(C)ccc([N+](=O)[O-])c12 [9-(2′-butyloxyethylamino)-4-methyl-1-nitroacridine]	8 mg/kg	217%	–
COc1ccc2nc3c(C)ccc([N+](=O)[O-])c3c(NCCOC(C)=O)c2c1 [9-(2′-acetoxyethylamino)-7-methoxy-4-methyl-1-nitroacridine]	25 mg/kg	133%	–
CC(=O)OCCCNc1c2ccccc2nc2c(C)ccc([N+](=O)[O-])c12 [9-(3′-acetoxypropylamino)-4-methyl-1-nitroacridine]	8 mg/kg	157%	–
COc1ccc([N+](=O)[O-])c2c(NCCO)c3ccccc3nc12 [9-(2′-hydroxyethylamino)-4-methoxy-1-nitroacridine]	16 mg/kg	200%	–
COc1ccc2nc3c(C)ccc([N+](=O)[O-])c3c(NCCCOC(C)=O)c2c1 [9-(3′-acetoxypropylamino)-7-methoxy-4-methyl-1-nitroacridine]	16 mg/kg	217%	–
CC(=O)OCCNc1c2ccccc2nc2c(C)ccc([N+](=O)[O-])c12 [9-(2′-acetoxyethylamino)-4-methyl-1-nitroacridine]	8 mg/kg	233%	–
